Assay results reported in PubChem BioAssay (NCI).
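Compound exposure: 48 hours, 5 concentrations, 96-well plates. GI50 is the concentration that inhibits growth by half. TGI: concentration producing complete growth inhibition.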

What was measured:
Assay in all cases: NCI tumour cell line growth inhibition, 48 h; in the data active = GI50 below about 0.43 µM; inactive = the rest
786-0 renal = tested on: 786-0 renal
A498 renal = tested on: A498 renal
A549 NSCLC = tested on: A549 NSCLC
ACHN renal = tested on: ACHN renal
BT-549 breast = tested on: BT-549 breast
CAKI-1 renal = tested on: CAKI-1 renal
CCRF-CEM leukemia = tested on: CCRF-CEM leukemia
COLO 205 colon = tested on: COLO 205 colon
DU-145 prostate = tested on: DU-145 prostate
EKVX NSCLC = tested on: EKVX NSCLC
HCC-2998 colon = tested on: HCC-2998 colon
HCT-116 colon = tested on: HCT-116 colon
HCT-15 colon = tested on: HCT-15 colon
HL-60(TB) leukemia = tested on: HL-60(TB) leukemia
HOP-62 NSCLC = tested on: HOP-62 NSCLC
HOP-92 NSCLC = tested on: HOP-92 NSCLC
HS 578T breast = tested on: HS 578T breast
HT29 colon = tested on: HT29 colon
IGROV1 ovarian = tested on: IGROV1 ovarian
K-562 leukemia = tested on: K-562 leukemia
KM12 colon = tested on: KM12 colon
LOX IMVI melanoma = tested on: LOX IMVI melanoma
M14 melanoma = tested on: M14 melanoma
MALME-3M melanoma = tested on: MALME-3M melanoma
MDA-MB-231 breast = tested on: MDA-MB-231 breast
MDA-MB-435 = tested on: MDA-MB-435
MOLT-4 leukemia = tested on: MOLT-4 leukemia
NCI-H226 lung = tested on: NCI-H226 lung
NCI-H23 lung = tested on: NCI-H23 lung
NCI-H522 lung = tested on: NCI-H522 lung
NCI/ADR-RES ovarian = tested on: NCI/ADR-RES ovarian
OVCAR-4 ovarian = tested on: OVCAR-4 ovarian
OVCAR-5 ovarian = tested on: OVCAR-5 ovarian
OVCAR-8 ovarian = tested on: OVCAR-8 ovarian
PC-3 prostate = tested on: PC-3 prostate
SF-268 CNS = tested on: SF-268 CNS
SF-295 CNS = tested on: SF-295 CNS
SF-539 CNS = tested on: SF-539 CNS
SK-MEL-2 melanoma = tested on: SK-MEL-2 melanoma
SK-MEL-5 melanoma = tested on: SK-MEL-5 melanoma
SK-OV-3 ovarian = tested on: SK-OV-3 ovarian
SN12C renal = tested on: SN12C renal
SNB-19 CNS = tested on: SNB-19 CNS
SNB-75 CNS = tested on: SNB-75 CNS
SW-620 colon = tested on: SW-620 colon
T-47D breast = tested on: T-47D breast
TK-10 renal = tested on: TK-10 renal
U251 CNS = tested on: U251 CNS
UACC-257 melanoma = tested on: UACC-257 melanoma
UACC-62 melanoma = tested on: UACC-62 melanoma
UO-31 renal = tested on: UO-31 renal

CC(=O)OC12C=C(C)C(C(C)C1)C1C(=O)N(CCN3CCOCC3)C(=O)C12 (configuration not stated)
> 100 µM: TGI (786-0 renal) | TGI (A498 renal) | TGI (A549 NSCLC) | TGI (ACHN renal) | TGI (BT-549 breast) | TGI (CAKI-1 renal) | TGI (CCRF-CEM leukemia) | TGI (COLO 205 colon) | TGI (DU-145 prostate) | TGI (EKVX NSCLC) | TGI (HCC-2998 colon) | TGI (HCT-116 colon) | TGI (HCT-15 colon) | TGI (HL-60(TB) leukemia) | TGI (HOP-62 NSCLC) | TGI (HOP-92 NSCLC) | TGI (HS 578T breast) | TGI (HT29 colon) | TGI (IGROV1 ovarian) | TGI (K-562 leukemia) | TGI (KM12 colon) | TGI (LOX IMVI melanoma) | TGI (M14 melanoma) | TGI (MALME-3M melanoma) | TGI (MDA-MB-231 breast) | TGI (MDA-MB-435) | TGI (MOLT-4 leukemia) | TGI (NCI-H226 lung) | TGI (NCI-H23 lung) | TGI (NCI-H522 lung) | TGI (NCI/ADR-RES ovarian) | TGI (OVCAR-4 ovarian) | TGI (OVCAR-5 ovarian) | TGI (OVCAR-8 ovarian) | TGI (PC-3 prostate) | TGI (SF-268 CNS) | TGI (SF-295 CNS) | TGI (SF-539 CNS) | TGI (SK-MEL-2 melanoma) | TGI (SK-MEL-5 melanoma) | TGI (SK-OV-3 ovarian) | TGI (SN12C renal) | TGI (SNB-19 CNS) | TGI (SNB-75 CNS) | TGI (SW-620 colon) | TGI (T-47D breast) | TGI (TK-10 renal) | TGI (U251 CNS) | TGI (UACC-257 melanoma) | TGI (UACC-62 melanoma) | TGI (UO-31 renal)
inactive: GI50 (786-0 renal) > 100 µM | GI50 (A498 renal) > 100 µM | GI50 (A549 NSCLC) > 100 µM | GI50 (ACHN renal) > 100 µM | GI50 (BT-549 breast) > 100 µM | GI50 (CAKI-1 renal) > 100 µM | GI50 (CCRF-CEM leukemia) > 100 µM | GI50 (COLO 205 colon) > 100 µM | GI50 (DU-145 prostate) > 100 µM | GI50 (EKVX NSCLC) > 100 µM | GI50 (HCC-2998 colon) > 100 µM | GI50 (HCT-116 colon) > 100 µM | GI50 (HCT-15 colon) > 100 µM | GI50 (HL-60(TB) leukemia) > 100 µM | GI50 (HOP-62 NSCLC) > 100 µM | GI50 (HOP-92 NSCLC) > 100 µM | GI50 (HS 578T breast) > 100 µM | GI50 (HT29 colon) > 100 µM | GI50 (IGROV1 ovarian) > 100 µM | GI50 (K-562 leukemia) > 100 µM | GI50 (KM12 colon) > 100 µM | GI50 (LOX IMVI melanoma) > 100 µM | GI50 (M14 melanoma) > 100 µM | GI50 (MALME-3M melanoma) > 100 µM | GI50 (MDA-MB-231 breast) > 100 µM | GI50 (MDA-MB-435) > 100 µM | GI50 (MOLT-4 leukemia) > 100 µM | GI50 (NCI-H226 lung) > 100 µM | GI50 (NCI-H23 lung) > 100 µM | GI50 (NCI-H522 lung) > 100 µM | GI50 (NCI/ADR-RES ovarian) > 100 µM | GI50 (OVCAR-4 ovarian) > 100 µM | GI50 (OVCAR-5 ovarian) > 100 µM | GI50 (OVCAR-8 ovarian) > 100 µM | GI50 (PC-3 prostate) > 100 µM | GI50 (SF-268 CNS) > 100 µM | GI50 (SF-295 CNS) > 100 µM | GI50 (SF-539 CNS) > 100 µM | GI50 (SK-MEL-2 melanoma) > 100 µM | GI50 (SK-MEL-5 melanoma) > 100 µM | GI50 (SK-OV-3 ovarian) > 100 µM | GI50 (SN12C renal) > 100 µM | GI50 (SNB-19 CNS) > 100 µM | GI50 (SNB-75 CNS) > 100 µM | GI50 (SW-620 colon) > 100 µM | GI50 (T-47D breast) > 100 µM | GI50 (TK-10 renal) > 100 µM | GI50 (U251 CNS) > 100 µM | GI50 (UACC-257 melanoma) > 100 µM | GI50 (UACC-62 melanoma) > 100 µM | GI50 (UO-31 renal) > 100 µM
